From patent publication US10478425B2, “5-phenylazaindole derivative having AMPK-activating activity” (Shionogi & Co., Ltd., priority 2016, dated 2019)

Experiments:
[1] = BA test (oral absorption); assay type: in vivo; settings: rat, plasma; rats; calculated from AUCs of oral and intravenous administration groups
Procedure: • (1) Animals: mice or rats • (2) Animal husbandry: Mice and rats had free access to solid food and sterilized bottled tap water. • (3) Setting of dose and group compositions: orally or intravenously administered at a predetermined dose Group compositions were as shown below. (Dose depends on the compound)
Oral: 1 to 30 mg/kg (n=2 to 3)
Intravenous: 0.5 to 10 mg/kg (n=2 to 3) • (4) Preparation of administration formulation: for oral administration, in a solution or a suspension state; for intravenous administration, in a solubilized state • (5) Dosing procedure: In oral administration study, the test substance was forcibly administered to the stomach by using a gavage tube. In intravenous administration study, the test substance was administered via tail vein using a syringe with a needle. • (6) Evaluation items: Blood was collected at each time point, and plasma concentration of the drug was determined by LC/MS/MS. • (7) Data analysis: Regarding the transition of the plasma concentration, area under the plasma concentration-time curve (AUC) was calculated by means of WinNonlin® program, respectively. Bioavailability (BA) was calculated from AUCs of the oral administration group and intravenous administration group.

[2] = test system: phosphorylation of endogenous acetyl-CoA carboxylase (ACC) in L6-GLUT4myc myoblasts; test: Test Example 3: cell-based ELISA of ACC (Ser79) phosphorylation for AMPK activation in L6-GLUT4myc myoblasts; settings: for EC (150% of control): concentration causing 150% relative to vehicle control (100%), 3 hours, phospho-ACC; for Emax: maximum response within varying concentrations, vehicle control = 100%
Procedure: Cell-based assay for AMPK activation potency of compounds was performed with L6-GLUT4myc myoblasts (J. Biol. Chem. 278:17953-62, 2003) in a 96-well or 384-well plate by detecting the phosphorylation of endogenous acetyl-CoA carboxylase (ACC) using cell-based ELISA method. The cells were seeded in a 96-well plate at a density of 2×10^4 cells per well or in a 384-well plate at a density of 3.5×10^3 cells per well in minimum essential media (α-MEM) supplemented with 10% fetal bovine serum, 100 U/mL penicillin, 100 μg/mL streptomycin, 2 μg/mL blasticidin S hydrochloride and 0.5 mg/mL G418 disulfate, and maintained in a humidified atmosphere of 95% air and 5% CO2 at 37° C. for 24 hours. Following the overnight culture with an assay buffer consisting of 0.1% bovine serum albumin (BSA), 100 U/mL penicillin and 100 μg/mL streptomycin, cells were treated with varying concentrations of compounds or vehicle (dimethyl sulfoxide at a final concentration of 0.33%) in the presence of 0.1% BSA or 4% BSA for 3 hours at room temperature. After fixing cells with ice-cold 4% formaldehyde in Tris-buffered saline (TBS) for 30 min, the fixed cells were rinsed with TBS containing 0.1% or 0.01% Triton X-100 (TBS-T) and quenched with 0.6% hydrogen peroxide in TBS-T, and blocked with a blocking reagent (Blocking One P manufactured by Nacalai Tesque). Then, anti-phospho-ACC (Ser79) antibody as the primary antibody (manufactured by Cell Signaling Technology) diluted with TBS-T containing 5% Blocking One P was added to each well and the plate was incubated overnight at 4° C. After rinsing each well with TBS-T, horseradish peroxidase (HRP)-conjugated anti-rabbit IgG as the secondary antibody diluted with TBS-T containing 5% Blocking One P was added to each well and the plate was incubated for 1 hour in 96-well plate or for 5 hours in 384-well plate at room temperature. Each well of the plate was rinsed with TBS-T and added a chemiluminescent reagent (ImmunoStar® LD manufactured by Wako Pure Chemical Industries) for detection of HRP conjugates. Ten minutes later, the luminescence intensity was measured using luminometer (ViewLux or ARVO manufactured by PerkinElmer). The luminescence in the presence of compound was calculated as the rate of change relative to vehicle control, which is in the absence of compound.

Human AMPK α2β2γ1 = target: T1, Human AMPK α2β2γ1 (Homo sapiens, UniProt O43741+P54646); test: Test Example 2: activation of phosphorylated human AMPK α2β2γ1 (mobility-shift kinase assay, FL-Peptide 7); assay type: biochemical; settings: for EC150: compound concentration showing 150% relative to the control (100%), human AMPK α2β2γ1 phosphorylated with CaMKK2; for Emax: maximum rate of increase in activity within the measurement range, control = 100%, read-out: Emax
T1 construct: The full length cDNAs of human AMPK β2 (NM_005399.3) and human AMPK α2 (NM_006252.3); The full length cDNAs of human AMPK β2 (NM_005399.3); the full length cDNA of human AMPK γ1 (NM_002733.3) had been inserted into pET28b(+); 6×His (N); made in house; host or cells: Escherichia coli BL21 CodonPlus (DE3)-RIL
Outline: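 His-tagged α2β2γ1 expressed in E. coli was pre-phosphorylated by GST-CaMKKβ (25 °C, 1–1.5 h), then exposed to compound for 10 min (1% DMSO). Reaction: pH 7.0 HEPES, ATP and 1.5 μM FL-Peptide 7 (final), 2 h at 25 °C. Mobility-shift conversion gave % activity increase versus compound-free control.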

T1 sequence (P54646 whole entry): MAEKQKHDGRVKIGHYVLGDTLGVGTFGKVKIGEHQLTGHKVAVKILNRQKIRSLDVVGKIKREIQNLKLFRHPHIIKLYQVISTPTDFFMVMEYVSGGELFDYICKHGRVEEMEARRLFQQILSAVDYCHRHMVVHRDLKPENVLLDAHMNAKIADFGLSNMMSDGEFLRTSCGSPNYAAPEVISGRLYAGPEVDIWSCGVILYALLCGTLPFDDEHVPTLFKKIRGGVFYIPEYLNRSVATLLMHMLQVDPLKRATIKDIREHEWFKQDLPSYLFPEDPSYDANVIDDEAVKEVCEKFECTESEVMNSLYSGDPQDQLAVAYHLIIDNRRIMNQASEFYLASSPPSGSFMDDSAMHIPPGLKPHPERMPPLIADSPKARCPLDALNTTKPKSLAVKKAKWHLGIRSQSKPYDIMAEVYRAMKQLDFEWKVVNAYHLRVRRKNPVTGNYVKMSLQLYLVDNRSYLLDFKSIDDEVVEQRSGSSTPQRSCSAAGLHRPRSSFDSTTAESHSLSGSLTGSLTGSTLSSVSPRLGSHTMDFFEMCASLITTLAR
T1 sequence (O43741 whole entry): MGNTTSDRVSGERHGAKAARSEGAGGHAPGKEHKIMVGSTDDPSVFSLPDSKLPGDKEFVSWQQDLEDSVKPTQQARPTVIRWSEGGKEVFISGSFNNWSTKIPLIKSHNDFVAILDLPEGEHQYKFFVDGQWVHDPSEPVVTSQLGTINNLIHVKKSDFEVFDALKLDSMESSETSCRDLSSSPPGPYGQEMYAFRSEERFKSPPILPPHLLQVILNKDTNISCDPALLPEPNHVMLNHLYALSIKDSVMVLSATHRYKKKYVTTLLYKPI
T1 sequence (P54619 whole entry partner): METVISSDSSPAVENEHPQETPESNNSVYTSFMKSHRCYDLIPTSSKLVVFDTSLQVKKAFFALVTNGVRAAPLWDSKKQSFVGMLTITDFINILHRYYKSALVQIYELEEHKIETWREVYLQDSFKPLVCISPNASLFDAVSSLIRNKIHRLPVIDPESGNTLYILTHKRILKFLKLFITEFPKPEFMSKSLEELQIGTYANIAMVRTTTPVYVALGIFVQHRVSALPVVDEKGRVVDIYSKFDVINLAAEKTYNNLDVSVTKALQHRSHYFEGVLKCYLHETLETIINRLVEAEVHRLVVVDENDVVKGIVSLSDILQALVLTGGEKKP

SMILES	bioavailability [1] [%]	EC (150% of control) [2] [µM]	Emax [2] [%]	EC150 (Human AMPK α2β2γ1) [nM]	Emax (Human AMPK α2β2γ1) [%]
CN1CCC(Oc2ccc(-c3ccc(-c4nc5cc(O[C@@H]6CO[C@H]7[C@@H]6OC[C@H]7O)[nH]c5cc4F)cc3)cc2)C1=O (some centres unmarked) [Compound I-2-32]	28.6	0.086	531	1.3	379
CC(=O)N1CCC(Oc2ccc(-c3ccc(-c4nc5cc(O[C@@H]6CO[C@H]7[C@@H]6OC[C@H]7O)[nH]c5cc4F)cc3)cc2)C1 (some centres unmarked) [Compound I-1-27]	19.6	0.168	473	5.8	332
O[C@@H]1CO[C@H]2[C@@H]1OC[C@H]2Oc1cc2nc(-c3ccc(-c4ccc(O[C@@H]5CCOC5)cc4)cc3)c(F)cc2[nH]1 [Compound I-2-84]	52.1	0.079	684	4.3	514
CC(C)(O)COc1ccc(-c2ccc(-c3nc4cc(O[C@@H]5CO[C@H]6[C@@H]5OC[C@H]6O)[nH]c4cc3F)cc2)cc1 [Compound I-2-13]	59	0.16	650	3	652
O[C@@H]1CO[C@H]2[C@@H]1OC[C@H]2Oc1cc2nc(-c3ccc([C@@H]4CCCC[C@@H]4O)cc3)c(F)cc2[nH]1 [Compound I-2-18]	18.6	0.164	612	12	618
COCCNc1ccc(-c2ccc(-c3nc4cc(O[C@@H]5CO[C@H]6[C@@H]5OC[C@H]6O)[nH]c4cc3F)cc2)cc1 [Compound I-2-31]	40.5	0.134	656	6.8	478
CS(C)(=O)=Nc1ccc(-c2ccc(-c3nc4cc(O[C@@H]5CO[C@H](CO)C5)[nH]c4cc3F)cc2)cc1 [Compound I-1-47]		0.0039	547	0.96	542
COCCOc1ccc(-c2ccc(-c3nc4cc(O[C@@H]5CO[C@H]6[C@@H]5OC[C@H]6O)[nH]c4cc3F)cc2)cc1 [Compound I-1-66]	38.8	0.103	635	8.5	333
O=C1NCCC1Oc1ccc(-c2ccc(-c3nc4cc(O[C@@H]5CO[C@H]6[C@@H]5OC[C@H]6O)[nH]c4cc3F)cc2)cc1 (some centres unmarked) [Compound I-1-70]	25.5	0.156	512		
C[S+]([O-])c1ccc(-c2ccc(-c3nc4cc(O[C@@H]5CO[C@H]6[C@@H]5OC[C@H]6O)[nH]c4cc3F)cc2)cc1 (some centres unmarked) [Compound I-1-64]	17.8	0.021	509	1.6	375
